# Columns and labels:
# Glucocorticoid receptor [1] = target: T1, Glucocorticoid receptor (Homo sapiens, UniProt P04150); assay: Inhibition of human glucocorticoid receptor alpha isoform
# T1 sequence (P04150 whole entry): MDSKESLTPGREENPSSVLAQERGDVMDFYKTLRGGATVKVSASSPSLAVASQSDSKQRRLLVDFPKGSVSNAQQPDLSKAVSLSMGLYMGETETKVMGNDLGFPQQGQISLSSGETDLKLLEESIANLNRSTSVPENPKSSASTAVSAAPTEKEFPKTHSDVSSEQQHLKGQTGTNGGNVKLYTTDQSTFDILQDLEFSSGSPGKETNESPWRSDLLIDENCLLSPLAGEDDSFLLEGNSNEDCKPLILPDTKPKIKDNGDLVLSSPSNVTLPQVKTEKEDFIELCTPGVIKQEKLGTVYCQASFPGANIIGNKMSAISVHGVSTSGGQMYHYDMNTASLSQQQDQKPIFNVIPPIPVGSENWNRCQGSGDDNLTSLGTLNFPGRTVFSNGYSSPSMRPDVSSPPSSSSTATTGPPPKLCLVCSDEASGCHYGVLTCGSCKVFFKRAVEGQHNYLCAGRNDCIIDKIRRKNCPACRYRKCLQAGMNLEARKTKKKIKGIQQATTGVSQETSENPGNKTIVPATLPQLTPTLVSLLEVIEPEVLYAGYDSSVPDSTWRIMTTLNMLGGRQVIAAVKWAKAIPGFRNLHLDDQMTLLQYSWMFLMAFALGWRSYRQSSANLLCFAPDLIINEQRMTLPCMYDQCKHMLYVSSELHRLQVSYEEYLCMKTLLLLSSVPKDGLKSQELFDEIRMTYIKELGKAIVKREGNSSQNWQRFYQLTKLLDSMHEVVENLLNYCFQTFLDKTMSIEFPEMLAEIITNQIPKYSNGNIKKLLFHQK
# Estrogen receptor beta = Estrogen receptor beta (Homo sapiens, UniProt Q92731); assay: Binding affinity for human estrogen receptor beta
# Chain of Estrogen receptor beta (Q92731 whole entry): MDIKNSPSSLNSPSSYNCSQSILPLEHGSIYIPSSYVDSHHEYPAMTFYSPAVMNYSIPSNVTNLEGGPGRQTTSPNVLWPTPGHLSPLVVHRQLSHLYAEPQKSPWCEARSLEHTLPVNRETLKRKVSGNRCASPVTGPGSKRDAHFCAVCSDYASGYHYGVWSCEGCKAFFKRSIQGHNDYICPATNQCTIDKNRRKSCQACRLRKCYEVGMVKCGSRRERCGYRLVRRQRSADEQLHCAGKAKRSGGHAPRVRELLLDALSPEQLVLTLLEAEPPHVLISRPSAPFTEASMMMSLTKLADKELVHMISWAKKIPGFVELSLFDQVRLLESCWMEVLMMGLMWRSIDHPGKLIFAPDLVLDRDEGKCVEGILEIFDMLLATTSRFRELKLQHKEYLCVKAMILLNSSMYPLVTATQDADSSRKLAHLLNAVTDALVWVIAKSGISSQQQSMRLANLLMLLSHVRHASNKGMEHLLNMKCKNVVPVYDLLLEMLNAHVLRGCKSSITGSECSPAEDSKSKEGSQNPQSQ
# [2] = target: T2, Mineralocorticoid receptor (Rattus norvegicus, UniProt P22199); assay: Binding affinity for rat mineralocorticoid receptor
# T2 sequence (P22199 whole entry): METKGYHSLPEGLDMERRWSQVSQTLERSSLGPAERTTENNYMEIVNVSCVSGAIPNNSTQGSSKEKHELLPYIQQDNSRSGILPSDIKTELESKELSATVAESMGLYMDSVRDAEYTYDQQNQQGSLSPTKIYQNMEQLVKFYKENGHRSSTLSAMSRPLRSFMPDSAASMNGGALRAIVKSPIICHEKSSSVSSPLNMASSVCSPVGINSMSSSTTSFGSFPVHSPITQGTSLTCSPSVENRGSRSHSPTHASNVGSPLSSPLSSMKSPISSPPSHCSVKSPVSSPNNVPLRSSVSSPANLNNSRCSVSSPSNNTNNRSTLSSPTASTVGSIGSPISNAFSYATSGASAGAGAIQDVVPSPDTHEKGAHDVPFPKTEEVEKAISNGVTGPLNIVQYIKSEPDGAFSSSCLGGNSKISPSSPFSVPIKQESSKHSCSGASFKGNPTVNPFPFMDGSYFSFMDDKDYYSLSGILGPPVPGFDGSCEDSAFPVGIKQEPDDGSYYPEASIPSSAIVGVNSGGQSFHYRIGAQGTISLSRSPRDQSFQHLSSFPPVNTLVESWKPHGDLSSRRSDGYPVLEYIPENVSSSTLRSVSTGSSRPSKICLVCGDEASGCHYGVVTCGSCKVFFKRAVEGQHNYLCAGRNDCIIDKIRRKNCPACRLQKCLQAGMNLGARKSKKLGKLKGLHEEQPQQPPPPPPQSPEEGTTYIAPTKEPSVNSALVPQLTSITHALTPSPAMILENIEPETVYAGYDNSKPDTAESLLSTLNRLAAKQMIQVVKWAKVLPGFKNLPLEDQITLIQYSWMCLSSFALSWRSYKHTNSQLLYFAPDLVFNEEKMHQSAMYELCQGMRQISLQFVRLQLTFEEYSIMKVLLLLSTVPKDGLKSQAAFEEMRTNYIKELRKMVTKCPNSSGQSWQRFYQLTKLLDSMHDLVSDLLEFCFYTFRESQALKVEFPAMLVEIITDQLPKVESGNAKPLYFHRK
# A549 [3] = assay: Effective concentration for inhibition of interleukin-6 in human A549 lung carcinoma cell line using 69% radiolabeled Dexamethasone; type: functional, cell-based
# Glucocorticoid receptor [4] = target: T1, Glucocorticoid receptor; assay: Binding affinity for human glucocorticoid receptor
# Estrogen receptor = target: T3, Estrogen receptor (Homo sapiens, UniProt P03372); assay: Binding affinity for human estrogen receptor alpha
# T3 sequence (P03372 whole entry): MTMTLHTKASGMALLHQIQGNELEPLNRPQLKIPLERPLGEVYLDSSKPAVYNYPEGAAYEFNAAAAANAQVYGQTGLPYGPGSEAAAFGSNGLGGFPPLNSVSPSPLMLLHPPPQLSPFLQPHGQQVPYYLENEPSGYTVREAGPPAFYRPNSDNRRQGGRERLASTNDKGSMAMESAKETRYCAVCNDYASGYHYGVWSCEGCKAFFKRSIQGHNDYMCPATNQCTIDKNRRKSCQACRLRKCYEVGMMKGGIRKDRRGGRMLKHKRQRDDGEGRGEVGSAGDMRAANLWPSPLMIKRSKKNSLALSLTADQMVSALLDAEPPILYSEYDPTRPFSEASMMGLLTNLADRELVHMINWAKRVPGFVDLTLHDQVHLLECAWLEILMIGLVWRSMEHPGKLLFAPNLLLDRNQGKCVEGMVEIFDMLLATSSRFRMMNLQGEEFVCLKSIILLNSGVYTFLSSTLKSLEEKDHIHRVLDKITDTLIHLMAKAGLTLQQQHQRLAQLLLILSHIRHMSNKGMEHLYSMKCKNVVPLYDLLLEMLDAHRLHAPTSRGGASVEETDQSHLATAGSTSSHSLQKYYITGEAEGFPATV
# Progesterone receptor = target: T4, Progesterone receptor (Homo sapiens, UniProt P06401); assay: Binding affinity for human progesterone receptor
# T4 sequence (P06401 whole entry): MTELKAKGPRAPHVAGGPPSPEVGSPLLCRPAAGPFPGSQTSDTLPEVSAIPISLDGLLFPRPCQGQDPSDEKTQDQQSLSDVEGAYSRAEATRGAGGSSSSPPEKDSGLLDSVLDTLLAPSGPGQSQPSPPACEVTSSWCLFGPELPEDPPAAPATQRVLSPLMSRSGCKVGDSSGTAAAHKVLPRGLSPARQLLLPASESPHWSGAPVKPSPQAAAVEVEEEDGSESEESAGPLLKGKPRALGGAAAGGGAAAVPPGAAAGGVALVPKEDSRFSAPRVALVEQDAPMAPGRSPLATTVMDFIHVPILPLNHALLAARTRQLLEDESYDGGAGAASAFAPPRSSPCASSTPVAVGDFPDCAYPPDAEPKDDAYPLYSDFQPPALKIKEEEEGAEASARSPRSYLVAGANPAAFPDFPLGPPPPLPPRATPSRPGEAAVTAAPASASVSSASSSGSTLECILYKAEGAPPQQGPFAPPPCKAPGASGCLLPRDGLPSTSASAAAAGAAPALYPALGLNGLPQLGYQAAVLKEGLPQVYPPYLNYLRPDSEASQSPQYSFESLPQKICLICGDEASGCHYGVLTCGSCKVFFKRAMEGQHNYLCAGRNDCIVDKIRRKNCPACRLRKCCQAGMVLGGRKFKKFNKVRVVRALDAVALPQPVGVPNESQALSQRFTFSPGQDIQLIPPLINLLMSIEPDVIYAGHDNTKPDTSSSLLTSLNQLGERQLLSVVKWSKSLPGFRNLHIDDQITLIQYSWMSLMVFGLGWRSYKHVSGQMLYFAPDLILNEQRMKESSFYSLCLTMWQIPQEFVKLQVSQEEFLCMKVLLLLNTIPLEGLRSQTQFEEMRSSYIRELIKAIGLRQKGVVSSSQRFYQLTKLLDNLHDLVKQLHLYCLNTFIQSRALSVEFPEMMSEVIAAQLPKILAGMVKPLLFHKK
# Mus musculus [5] = species: Mus musculus; assay: Effective concentration required for inhibition of interleukin-6 in mouse thioglycolate-elicited peritoneal exudate cell line using 79% radiolabeled Dexamethasone; type: functional
# A549 [6] = assay: Effective concentration for inhibition of interleukin-6 in human A549 lung carcinoma cell line using 32% radiolabeled Dexamethasone; type: functional, cell-based
# [7] = Effective concentration required for induction of glutamine synthetase in human skeletal muscle cells using 97% radiolabeled Dexamethasone; type: functional
# Mus musculus [8] = species: Mus musculus; assay: Effective concentration required for inhibition of interleukin-6 in mouse thioglycolate-elicited peritoneal exudate cell line using 95% radiolabeled Dexamethasone; type: functional
# A549 [9] = assay: Effective concentration required for inhibition of interleukin-6 in human A549 lung carcinoma cell line using 102% radiolabeled Dexamethasone; type: functional, cell-based
# HepG2 = assay: Effective concentration required for induction of tyrosine aminotransferase in human HepG2 cells using 81% radiolabeled Dexamethasone; type: functional, cell-based
# [10] = Effective concentration required for induction of glutamine synthetase in human skeletal muscle cells using 58% radiolabeled Dexamethasone; type: functional
# Mus musculus [11] = species: Mus musculus; assay: Effective concentration required for inhibition of interleukin-6 in mouse thioglycolate-elicited peritoneal exudate cell line using 66% radiolabeled Dexamethasone; type: functional
# Mus musculus [12] = species: Mus musculus; assay: Effective concentration required for inhibition of interleukin-6 in mouse thioglycolate-elicited peritoneal exudate cell line using 62% radiolabeled Dexamethasone; type: functional
# Mus musculus [13] = assay: Inhibition of LPS induced TNF-alpha secretion in mouse at an oral dose of 30 mg/kg relative to that produced by Dexamethasone at a dose of 0.3 mg/kg; type: functional
# Mus musculus [14] = species: Mus musculus; assay: Effective concentration required for interleukin-6 transrepression in peritoneal exudate cells of C57B1/6 mouse using 62% Dexamethasone; type: functional, cell-based
# A549 [15] = assay: Effective concentration for inhibition of interleukin-6 in human A549 lung carcinoma cell line using 75% radiolabeled Dexamethasone; type: functional, cell-based
structure (smiles),measurement,setting,value
C[C@@H]1C[C@@H](C)OC2(CCCC3=Cc4c(cnn4-c4ccc(F)cc4)C[C@@]32C)O1 (stereo partly drawn),IC50,Glucocorticoid receptor [1],8.3 nM
C[C@]12Cc3cnn(-c4ccc(F)cc4)c3C=C1CCC21OCCO1 (stereo in doubt; 13),IC50,Estrogen receptor beta,> 10000 nM
same,IC50,[2],> 10000 nM
same,EC50,A549 [3],28 nM
same,IC50,Glucocorticoid receptor [4],73 nM
same,IC50,Glucocorticoid receptor [1],73 nM
same,IC50,Estrogen receptor,> 10000 nM
same,IC50,Progesterone receptor,> 1000 nM
CC[C@H]1OC2(CCCC3=Cc4c(cnn4-c4ccc(F)cc4)C[C@@]32C)O[C@@H]1CC,EC50,Mus musculus [5],78 nM
same,IC50,Glucocorticoid receptor [1],5.5 nM
same,EC50,A549 [6],19 nM
C[C@H]1OC2(CCC3=Cc4c(cnn4-c4ccc(F)cc4)C[C@@]32C)O[C@@H]1C,IC50,Estrogen receptor beta,> 10000 nM
same,IC50,[2],> 10000 nM
same,IC50,Glucocorticoid receptor [4],24 nM
same,IC50,Glucocorticoid receptor [1],24 nM
same,IC50,Estrogen receptor,> 10000 nM
same,IC50,Progesterone receptor,> 1000 nM
C[C@]12Cc3cnn(-c4ccc(F)cc4)c3C=C1CCC21OCCO1 (stereo in doubt; 2),EC50,[7],32 nM
same,EC50,Mus musculus [8],5.7 nM
same,IC50,Glucocorticoid receptor [1],13.8 nM
same,EC50,A549 [9],4.5 nM
same,EC50,HepG2,211 nM
CCC[C@H]1OC2(CCCC3=Cc4c(cnn4-c4ccc(F)cc4)C[C@@]32C)O[C@@H]1CCC,IC50,Glucocorticoid receptor [1],8.9 nM
same,EC50,[10],29 nM
C[C@]12Cc3cnn(-c4ccc(F)cc4)c3C=C1CCCC21O[C@H](c2ccccc2)[C@@H](c2ccccc2)O1,EC50,Mus musculus [11],26 nM
same,IC50,Glucocorticoid receptor [1],10 nM
C[C@]12Cc3cnn(-c4ccc(F)cc4)c3C=C1CC[C@]21OC[C@H](c2ccccc2)O1,IC50,Glucocorticoid receptor [1],12 nM
C=C[C@H]1CO[C@@]2(CCC3=Cc4c(cnn4-c4ccc(F)cc4)C[C@@]32C)O1,IC50,Glucocorticoid receptor [1],49 nM
CC[C@H]1OC2(CCC3=Cc4c(cnn4-c4ccc(F)cc4)C[C@@]32C)O[C@@H]1CC,EC50,Mus musculus [12],36 nM
same,Inhibition,Mus musculus [13],97.8%
same,EC50,Mus musculus [14],36 nM
same,EC50,A549 [15],24 nM
same,IC50,Glucocorticoid receptor [1],6.6 nM

# Source: ChEMBL document CHEMBL1139605, “Novel ketal ligands for the glucocorticoid receptor: in vitro and in vivo activity” (Bioorg Med Chem Lett, 2005)
